What was measured:
young crickets [1] = assay: AMK-related synthetic compounds inducing long-term memories in young crickets; format: in vivo, Gryllus bimaculatus; conditions: 3 μl of 1 μg/ml to the brain 20 minutes after single-time training
Procedure: Male (young) crickets about one week old following molting into their adult stage were used. Each of the crickets was placed in a 100 ml beaker three days before the experiment, and deprived of water for 2-3 days to enhance the desire of taking water. As the feed, about 10 pieces of insect feed were placed into the beaker.
In the same manner as “1.2, Olfactory associative conditioning” in Example 1, learning/training for smell and reward associative conditioning was conducted.
In the same manner as “1.3. Smell preference test” in Example 1, a test of smell preference was carried out.
As drugs, the AMK-related synthetic compounds (Compounds 1-10) synthesized in Example 2 above were used. For all of the drugs, 1 mg of the drug was initially dissolved in 100 μl of DMSO, and then diluted with physiological saline for crickets that was 10000 times the amount of the drug solution (final concentration: 1 μg/ml). In the administration experiments, 3 μl was administered to the brain via an aperture opened through a simple eye of the head using a 10-μl syringe.
Processing was conducted in the same manner as “1.5. Statistical processing” in Example 1.

young crickets [2] = assay: Olfactory associative learning test in young crickets (single-time training, memory a day after); format: in vivo, Gryllus bimaculatus; conditions: for long-term memory formation a day after the training: 3 μl to the brain
Procedure: Male crickets about one week old (young) or three week old (aged) following molting into adult forms were used. Each of the crickets was placed into a 100 ml beaker three days before the experiment, and deprived of water for 2-3 days to enhance the desire of taking water. As the feed, about 10 pieces of insect feed were placed into the beaker.
A 1-ml syringe was used for smell and reward associative conditioning upon learning/training. The syringe contained water as the reward while a piece of paper (3 mm×3 mm) perfumed with peppermint essence was pierced into the needle to about 1 cm from the tip thereof. In this learning/training, the filter paper on the needle was brought near the antennae of the cricket to allow it to smell for 3 seconds and then a drop of water was put out from the tip of the needle and applied to the mouth of the cricket. When the associative conditioning was conducted for four times, the conditionings were conducted at intervals of 5 minutes.
Smell preference was examined by placing each cricket into a test arena. The arena consisted of a “standby chamber” and a “test chamber”. The floor of the “test chamber” had two holes each with a diameter of 4 cm which were communicated with two smell sources. The smell source was a plastic pot containing filter paper perfumed with essence of a smell (peppermint or vanilla) and covered with a gauze lid. In the preference test, each cricket was placed into the test chamber and allowed to walk freely for 4 minutes to search for the two smell sources. Two minutes after the start of the test, a rotary board having the smell sources was rotated to reverse the positions of the vanilla and the peppermint smells. During the test, the time the cricket spent placing its mouth to the gauze of the smell source was measured as a visiting time to the smell source, and the ratio of the visiting times of the two types of smells (PI value: preference index) was calculated according to the following formula to assess the relative preference to the mint smell. PI value=Tp/(Tp+Tv)×100 • Tp: Searching time for smell associated with the reward (peppermint) • Tv: Searching time for smell not associated with the reward (vanilla)
If the preferences for the two smells are equivalent, PI will be 50. Since crickets inherently prefer vanilla smell over peppermint smell, an average PI value prior to the learning/training is usually 25-35, The preference test was conducted before and after the learning/training to examine whether preference for the smell changes due to the learning/training.
As drugs, melatonin, N(1)-acetyl-N(2)-formyl-5-methoxykynuramine (AFMK), N(1)-acetyl-5-methoxykynuramine (AMK), 6-Hydroxymelatonin (6-HM), L-kynurenine, kynuramine, 8-Bromoguanoine 3′,5′-cyclic monophosphate sodium salt (8 br-cGMP) and cycloheximide (CHX) were used. Melatonin, 6-HM, kynurenine, kynuramine and 8br-cGMP were purchased from SIGMA Aldrich, AFMK was purchased from Cayman Chemical, AMK was purchased from Toronto Research Chemicals and CHX was purchased from Wako Pure Chemical Industries. The drugs other than 8br-cGMP and CHX were first dissolved in ethanol and then diluted with physiological saline for crickets to the respective concentrations. In the administration experiment, 3 μl was administered using a 10-μl syringe to the brain via an aperture opened through a simple eye of the head.
PI values were tested before the training and a day after the training in the same group by a Wilcoxon's-test.

aged crickets = assay: Olfactory associative learning test in aged crickets (age-related memory disorder, training four times); format: in vivo, Gryllus bimaculatus; conditions: 500 μM, 3 μl, 20 minutes before training for four times
Procedure: Male crickets about one week old (young) or three week old (aged) following molting into adult forms were used. Each of the crickets was placed into a 100 ml beaker three days before the experiment, and deprived of water for 2-3 days to enhance the desire of taking water. As the feed, about 10 pieces of insect feed were placed into the beaker. A 1-ml syringe was used for smell and reward associative conditioning upon learning/training. The syringe contained water as the reward while a piece of paper (3 mm×3 mm) perfumed with peppermint essence was pierced into the needle to about 1 cm from the tip thereof. In this learning/training, the filter paper on the needle was brought near the antennae of the cricket to allow it to smell for 3 seconds and then a drop of water was put out from the tip of the needle and applied to the mouth of the cricket. When the associative conditioning was conducted for four times, the conditionings were conducted at intervals of 5 minutes. Smell preference was examined by placing each cricket into a test arena. The arena consisted of a “standby chamber” and a “test chamber”. […] The smell source was a plastic pot containing filter paper perfumed with essence of a smell (peppermint or vanilla) and covered with a gauze lid. In the preference test, each cricket was placed into the test chamber and allowed to walk freely for 4 minutes to search for the two smell sources. Two minutes after the start of the test, a rotary board having the smell sources was rotated to reverse the positions of the vanilla and the peppermint smells. During the test, the time the cricket spent placing its mouth to the gauze of the smell source was measured as a visiting time to the smell source, and the ratio of the visiting times of the two types of smells (PI value: preference index) was calculated according to the following formula to assess the relative preference to the mint smell. PI value=Tp/(Tp+Tv)×100 • Tp: Searching time for smell associated with the reward (peppermint) • Tv: Searching time for smell not associated with the reward (vanilla) If the preferences for the two smells are equivalent, PI will be 50. Since crickets inherently prefer vanilla smell over peppermint smell, an average PI value prior to the learning/training is usually 25-35, The preference test was conducted before and after the learning/training to examine whether preference for the smell changes due to the learning/training. […] Melatonin, 6-HM, kynurenine, kynuramine and 8br-cGMP were purchased from SIGMA Aldrich, AFMK was purchased from Cayman Chemical, AMK was purchased from Toronto Research Chemicals and CHX was purchased from Wako Pure Chemical Industries. The drugs other than 8br-cGMP and CHX were first dissolved in ethanol and then diluted with physiological saline for crickets to the respective concentrations. In the administration experiment, 3 μl was administered using a 10-μl syringe to the brain via an aperture opened through a simple eye of the head. PI values were tested before the training and a day after the training in the same group by a Wilcoxon's-test.

young mice = assay: Object recognition test for young mice (melatonin and melatonin metabolites); format: in vivo, ICR mice; conditions: i.p. 60 minutes after one one-minute acquisition trial, test trial 24 hours later
Procedure: Two-month-old male ICR mice (young mice) were used. The rearing room was kept at 22° C. at cycles of 12 hours of light period/12 hours of dark period, and feed and drinking water were given freely. All of the experiments were conducted during the latter 6 hours of the light period.
Melatonin (MEL), N(1)-acetyl-N(2)-formyl-5-methoxykynuramine (AFMK), and N(1)-acetyl-5-methoxykynuramine (AMK) were used as drugs. Melatonin was purchased from SIGMA Aldrich, AFMK was purchased from Cayman Chemical, and AMK was purchased from Toronto Research Chemicals. AFMK and AMK were diluted with physiological saline and intraperitoneally administered at a dosage of 0.01 mg/kg bw, 0.1 mg/kg bw or 1.0 mg/kg bw. MEL was diluted with physiological saline containing 1 vol % ethanol, and intraperitoneally administered at a dosage of 1.0 mg/kg bw or 5.0 mg/kg bw. As controls, physiological saline or physiological saline containing 1 vol % ethanol was intraperitoneally administered.
Test was conducted in the same manner as “5.3 Object recognition test” in Example 5.
Processing was conducted in the same manner as “5.4 Statistical processing” in Example 5.

[3] = 5 μM, 20 minutes after single-time training

COc1ccc(N)c(C(=O)CCNC(=O)c2ccccc2)c1 [Compound 3, N-[3-(2-amino-5-methoxyphenyl)-3-oxopropyl]-benzamide]
effect in inducing long-term memory compared with AMK (young crickets [1]): superior effects over AMK

COc1ccc(NC(C)=O)c(C(=O)CCNC(C)=O)c1 [Compound 13, N-[3-(2-acetylamino-5-methoxyphenyl)-3-oxopropyl]acetamide]
melting point: 143 to 145 °C

COc1cc2c(CCNC(C)=O)c[nH]c2cc1O [Compound 6-HM, 6-Hydroxymelatonin, reference compound]
long-term memory formation a day after the training (young crickets [2]; [3]): a long-term memory was not formed | long-term memory formation a day after the training (young crickets [2]; 5 μM, 20 minutes before single-time training): a long-term memory was not formed

NCCC(=O)c1ccccc1N [Compound 15, 3-amino-1-(2-aminophenyl)-1-propanone]
long-term memory formation a day after the training (young crickets [2]; [3]): the long-term memories were formed

CC(=O)NCCC(=O)c1cc(Cl)ccc1N [Compound 8, N-[3-(2-amino-5-chlorophenyl)-3-oxopropyl]-acetamide]
effect in inducing long-term memory after one day (young crickets [1]): did not show significant difference with the number of individuals used this time but they showed a tendency to induce long-term memories | melting point: 121 to 122 °C

CC(=O)NCCC(=O)c1ccccc1N [Compound 9, N-[3-(2-aminophenyl)-3-oxopropyl]acetamide]
effect in inducing long-term memory compared with AMK (young crickets [1]): superior effects over AMK

COc1ccc(N)c(C(=O)CCNC(=O)c2ccccc2OC)c1 [Compound 5, N-[3-(2-amino-5-methoxyphenyl)-3-oxopropyl]-2-methoxybenzamide]
melting point: 134.5 to 136 °C

COc1ccc(N)c(C(=O)CCNC(=O)c2ccccn2)c1 [Compound 7, N-[3-(2-amino-5-methoxyphenyl)-3-oxopropyl]-2-picolinamide]
effect in inducing long-term memory compared with AMK (young crickets [1]): superior effects over AMK | melting point: 114 to 115.5 °C

O=C1O[C@H]([C@@H](O)CO)C(O)=C1O [vitamin C]
improvement in an age-related memory disorder (aged crickets): no improvement

COc1ccc(N)c(C(=O)CCNC(=O)c2ccc3ccccc3c2)c1 [Compound 6, N-[3-(2-amino-5-methoxyphenyl)-3-oxopropyl]-2-naphthamide]
effect in inducing long-term memory after one day (young crickets [1]): did not show significant difference with the number of individuals used this time but they showed a tendency to induce long-term memories | melting point: 113.5 to 114.5 °C

Nc1ccccc1C(=O)CC(N)C(=O)O (stereo not drawn) [Compound 16, 3-[(2-aminophenyl)carbonyl]-2-aminopropionic acid]
long-term memory formation a day after the training (young crickets [2]; [3]): the long-term memories were formed

CCC(=O)NCCC(=O)c1cc(OC)ccc1N [Compound 2, N-[3-(2-amino-5-methoxyphenyl)-3-oxopropyl]-propionamide]
effect in inducing long-term memory compared with AMK (young crickets [1]): superior effects over AMK

Nc1nc2c(nc(Br)n2[C@@H]2O[C@@H]3COP(=O)([O-])O[C@H]3[C@H]2O)c(=O)[nH]1.[Na+] [Compound 8br-cGMP, 8-Bromoguanoine 3′,5′-cyclic monophosphate sodium salt, reference compound]
long-term memory formation a day after the training (young crickets [2]; 200 μM, 20 minutes after single-time training): did not have the effect of inducing long-term memory | long-term memory formation a day after the training (young crickets [2]; 200 μM, 20 minutes before single-time training): confirmed

N[C@@H](CCC(=O)N[C@@H](CS)C(=O)NCC(=O)O)C(=O)O [glutathione]
improvement in an age-related memory disorder (aged crickets): no improvement

COc1ccc(NC=O)c(C(=O)CCNC(C)=O)c1 [Compound 10, N-[3-(2-formylamino-5-methoxyphenyl)-3-oxopropyl]acetamide]
administration concentration sufficient to form long-term memory (young crickets [2]; 3 μl to the brain 20 minutes after single-time training): 1 µM | concentration at which the effect of inducing long-term memories was found (young mice): 1.0 mg/kg bw

From patent publication US10266482B2, “Long-term memory inducing agent” (NATIONAL UNIVERSITY CORPORATION TOKYO MEDICAL AND DENTAL …, priority 2017, dated 2019)
